Legend:
[1] = Corneal and aqueous humour vancomycin quantification by LC-MS; assay type: in vivo, New Zealand White rabbits; conditions: for Vancomycin in the aqueous humour: rabbit; for Vancomycin in the aqueous humour / Corneal vancomycin concentration / Aqueous humour vancomycin concentration: LC-MS; for Corneal vancomycin concentration / Aqueous humour vancomycin concentration: after 4 days of vancomycin 1.4% drops 5 times/day; for Period of drop instillation required to achieve MIC in the cornea: vancomycin 1.4% drops five times a day
Experimental: Prior to starting the antibiotic regimen, the cornea of the right eye had complete epithelial debridement following application of 20% alcohol for 60 seconds, whereas the epithelium of the left cornea was not debrided.
Aqueous humour samples (120–150 μL) were extracted with three equivalents of methanol (Merck, Darmstadt, Germany). The samples were shaken for 5 min at 1200 rpm (20°C) and centrifuged for 10 min at 16,000 g (4°C). The supernatants were transferred to fresh tubes and dried in a vacuum concentrator. Cornea samples were cut and ground with a pestle while frozen. They were next homogenized on ice with 300 μL of 3:1 methanol/water with 0.1% formic acid (Sigma Aldrich, St. Louis, MO, USA) for 1 min. The homogenates were then spun down briefly on a capsule centrifuge and supernatants transferred to fresh tubes. The residues were homogenized and spun down a second time. The extracts were combined and centrifuged for 10 min at 16,000 g (4°C). The supernatants were transferred to fresh tubes and dried in a vacuum concentrator. Samples were reconstituted in water (Ultrapure water, Millipore purification unit) and centrifuged for 5 min at 16,000 g (10°C) before transferring to autosampler vials for LC-MS/MS analysis.
Chromatographic separation was performed on a Waters 2695 Separations Module (Milford, MA, USA) with a Thermo Scientific Hypersil Gold C18 column (Whaltham, MA, USA) (2.1 × 50 mm, 3 μm). The mobile phase was A: 0.1% formic acid in water and B: 0.1% formic acid in acetonitrile. The gradient profile was 2% B at 0 min, 25% B at 6 min, 90% B from 6.5 to 8.5 min and 2% B from 9 to 13 min. The flow rate was 0.3 ml/min. The autosampler and column heater temperatures were maintained at 10 and 30°C, respectively. Detection was performed by an AB Sciex API 2000 triple quadrupole mass spectrometer (Concord, Canada) with an electrospray ionization source operating in the positive ionization mode. The ion source voltage was set to 5 kV.

[2] = no data for the cornea; cited from earlier work
From the text: It may therefore bind to lectin-like proteins of the stromal extracellular matrix, reducing its bioavailability fur ...

[3] = system: Staphylococcus aureus ATCC29213; assay: Effectiveness of prophylaxis once the corneal MIC was achieved (inoculation after 16 days of drops); assay type: in vivo, New Zealand White rabbits; conditions: inoculation after 16 days of vancomycin 1.4% drops 5 times/day; 3 rabbits with titanium film implant
Experimental: Following bacterial inoculation, development of infection was assessed clinically with SLP and AS-OCT imaging.

Structure (SMILES): CN[C@H](CC(C)C)C(=O)N[C@H]1C(=O)N[C@@H](CC(N)=O)C(=O)N[C@H]2C(=O)N[C@H]3C(=O)N[C@H](C(=O)N[C@H](C(=O)O)c4cc(O)cc(O)c4-c4cc3ccc4O)[C@H](O)c3ccc(c(Cl)c3)Oc3cc2cc(c3O[C@@H]2O[C@H](CO)[C@@H](O)[C@H](O)[C@H]2O[C@H]2C[C@](C)(N)[C@H](O)[C@H](C)O2)Oc2ccc(cc2Cl)[C@H]1O [vancomycin]
- Vancomycin in the aqueous humour ([1]; after 2 days of vancomycin 1.4% drops 5 times/day): not detected
- Corneal vancomycin concentration ([1]; with epithelial removal (right eye, 20% alcohol 60 seconds), 3 rabbits, p = 0.115): 2.57 ± 0.40 µg/mL
- Aqueous humour vancomycin concentration ([1]; with epithelial removal, p = 0.063): 0.43 ± 0.15 µg/mL
- Corneal vancomycin concentration ([1]; without epithelial removal (left eye), 3 rabbits without implant): 1.36 ± 0.45 µg/mL
- Aqueous humour vancomycin concentration ([1]; without epithelial removal): 0.04 ± 0.005 µg/mL
- Vancomycin in the aqueous humour ([1]; day 10 of vancomycin 1.4% drops 5 times/day): below the level of quantification
- Vancomycin in the aqueous humour ([1]; day 16 of vancomycin 1.4% drops 5 times/day): below the level of quantification
- Period of drop instillation required to achieve MIC in the cornea ([1]; 100% compliance, epithelium not debrided): 16 days
- Period of drop instillation required to achieve MIC in the cornea ([1]; epithelium debrided): ≤ 4 days
- Binding to proteins [2]: moderate
- Rabbits showing evidence of corneal infection by day 2 post-inoculation [3]: 2 of the 3

From article PMC4604170 (PLoS ONE, 2015)
